Results on 1 compound are retold here after publication PMC9569971, “New Oxazolo[5,4-d]pyrimidines as Potential Anticancer Agents: Their Design, Synthesis, and In Vitro Biological Activity Research” (International Journal of Molecular Sciences, 2022).

The assay concerns lung adenocarcinoma (A549). Description: MTT viability assay, A549. Type of assay: cell-based, human. In general terms: Tetrazolium assays rely on reduction of a dye to a coloured formazan, in cell work by metabolically active cells.

The term CC50 denotes the concentration that lowers cell viability or growth by half. Lower therefore signals greater toxicity to the cells.

Regarding `Cc1noc(N)c1-c1nc2c(NCCCN(C)C)ncnc2o1` [Compound 3g, 2-(5-Amino-3-methylisoxazol-4-yl)-7-N-[3-(N,N-dimethylamino)propyl]aminooxazolo[5,4-d]pyrimidine], the “SI (selectivity index)” value (CC50 NHDF / CC50 A549) came to 1.123. Also, under “Homo sapiens, A549, MTT, tested 1–500 µM”, the CC50 amounted to 138 ± 12.9 µM.
